Where two headings read alike, the source gives them in different places.
Test system: reserpine-induced ptosis
Test: Antagonism of reserpine-induced ptosis in mice (antidepressant test)
Type: in vivo
Conditions: for inhibition of reserpine-induced ptosis (in words): comparative trials, dosages of 60 mg/kg (i.p.); for ED50: Mus musculus, 1.25 h
[1] = mice, compound oral 30 minutes before i.p. reserpine, ptosis noted 45 minutes after reserpine, read-out: ED50 (median effective dose protecting 50% of mice from reserpine-induced ptosis), oral
[2] = ip, mice, compound i.p. 30 minutes before i.p. reserpine, ptosis noted 45 minutes after reserpine, read-out: ED50 (median effective dose protecting 50% of mice from reserpine-induced ptosis), i.p.

Procedure: The antidepressant properties of the compounds employed in the methods of the present invention are determined by measuring their ability to counteract ptosis induced in animals by the intraperitoneal injection of reserpine. […] Forty-five minutes after the administration of reserpine, the presence or absence of ptosis is noted. The percent inhibition of ptosis is noted and the median effective dose (ED50) of each test ingredient which protected 50% of the test mice from reserpine-induced ptosis was calculated.

SMILES	inhibition of reserpine-induced ptosis (in words)	ED50 [1] [mg/kg]	ED50 [2] [mg/kg]	ED50 (po, read-out: ED50 (median effective dose protecting 50% of mice from reserpine-induced ptosis), oral) [mg/kg]
COc1ccc(NC(=S)NCCO)cc1OC [3,4-dimethoxy]	did not inhibit reserpine-induced ptosis	–	–	–
Cc1ccc(CNC(=S)NCCO)c(C)c1 [Compound 1, 1-(2,4-dimethylbenzyl)-3-(2-hydroxyethyl)thiourea]	–	6.8	11	–
COc1ccc(NC(=S)NCCO)c(C)c1 [Compound 2, 1-(4-methoxy-2-methylphenyl)-3-(2-hydroxyethyl)thiourea]	–	16.2	10	–
COc1ccccc1NC(=S)NCCO [Compound 2-methoxy]	did not inhibit reserpine-induced ptosis	–	–	–
COc1ccc(NC(=S)NCCO)c(OC)c1 [Compound 3, 1-(2,4-dimethoxyphenyl)-3-(2-hydroxyethyl)thiourea]	–	–	38	–
CN(C)CCC=C1c2ccccc2COc2ccccc21 [Doxepin]	–	27	27	–
CN(C)CCCN1c2ccccc2CCc2ccccc21 [Imipramine]	–	–	–	14
